Tested on: Ccl2, iNOs, TNFα, IFNg, IL-1b and IL-17
Test: EAE, pro-inflammatory gene expression in spinal cord (real-time PCR)
Type: in vivo, C57BL/6 mice
Conditions: EAE mice, 10 mg/kg, vs EAE+vehicle, FIG. 7
Experimental: Gene expression of inflammatory markers including CCL2, IFNγ, INOS, TNFα, IL-1β and IL-17 in the spinal cord was down regulated in EAE+compound (III) (10 mg/kg) group compared with EAE+Vehicle mice. Expression levels were calculated using the 2^−ΔΔct method.
EAE was induced in female C57BL/6 mice at 6-8 weeks of age by subcutaneous immunization with myelin oligodendrocyte glycoprotein polypeptide (MOG35-55) (300 μg) and 200 μg of Mycobacterium tuberculosis (H37Ra Difco, Franklin Lakes, N.J., USA) in a 1:1 mix with […] Freund's adjuvant (CFA, Sigma-Aldrich, Madrid, Spain). […] The mice were examined daily for clinical signs of EAE and disease scores were measured as follows: 0, no disease; 1, limp tail; 2, limp tail and hind limb weakness; 3, hind limb paralysis; 4, hind limb and front limb paralysis; 5, moribund and death. […]
Total RNA was isolated from striata (3NP model) or spinal cord (EAE model) using RNeasy Lipid Tissue Mini Kit (Qiagen, GmbH). The total amount of RNA extracted was quantitated by spectrometry at 260 nm and its purity from the ratio between the absorbance values at 260 and 280 nm. […] The iQ™ SYBR Green Supermix (Bio-Rad) was used to quantify mRNA levels for COX-2, TNF-α, IL-6, IL-17, IL-1β, IFN-γ, CCL-2 or iNOS depending on disease's model. […] Expression levels were calculated using the 2^−ΔΔct method.

For `CCCCCC1=C(NCC)C(=O)C(C/C=C(\C)CCC=C(C)C)=C(O)C1=O` [Compound III, 6-(3,7-dimethyl-octa-2,6-dienyl)-5-hydroxy-3-pentyl-2-ethylamino-[1,4]benzoquinone], the “expression of proinflammatory genes Ccl2, iNOs, TNFα, IFNg, IL-1b and IL-17 in the spinal cord” value was “significant decrease”.

From patent US9802880B2, “Cannabigerol derivatives” (VIVACELL BIOTECHNOLOGY ESPAÑA S.L., priority 2014, dated 2017)
